From ChEMBL document CHEMBL3507680, “University of Dundee, Gates Library screen for HepG2 cell viability” come the findings set out here.

Molecules are shown by their SMILES.

The nature of this data set: Human HepG2 cell viability assay in 384 well format. It counts as toxicity, cell-based. More on the design: dose 125 nL, time 70.5 hour; concentration not given beside the values. The conditions noted are these: HepG2 cells, read-out: Inhibition.

Regarding `Cc1cnc(C(=O)N2CCC3(CC2)CC(c2ccncc2)C(=O)N3)cn1` (configuration not stated), the cytotoxicity at 70.5 h is -5.53%.

As to `CC(=O)N1CC(=O)N(c2ccccc2)CC12CCN(Cc1ccsc1)C2` (configuration not stated), the cytotoxicity at 70.5 h was -8.03%.

With `CS(=O)(=O)N[C@@H]1CN(Cc2ccoc2)C[C@@H]2CCCO[C@@H]21`, the cytotoxicity at 70.5 h is -8.39%.

Turning to `Cc1cccc(C(=O)N2CCC3(CC2)CC(c2ccccc2)C(=O)N3)c1` (configuration not stated), the cytotoxicity at 70.5 h is -0.963%.

On to `CS(=O)(=O)NC[C@@H]1OC[C@H]2CN(C(=O)c3cnccn3)CC[C@H]21`, for which the cytotoxicity at 70.5 h was -1.54%.

Consider `Cn1cnc(S(=O)(=O)N2CCCn3cnc(CN4CCCC4)c3C2)c1`, for which the cytotoxicity at 70.5 h is -3.74%.

For `COCC1CC2(CCNCC2)CN1c1ncccn1` (configuration not stated), the cytotoxicity at 70.5 h was 2.77%.

On to `Cc1cncc(C(=O)NCC2COCc3c(C)nnn3C2)c1` (configuration not stated), for which the cytotoxicity at 70.5 h was determined as 0.75%.

In the case of `O=C(C1CCOCC1)N1CCC2(CC1)CC(Oc1ccccc1)CO2` (configuration not stated), the cytotoxicity at 70.5 h stood at 3.04%.

Regarding `CN(C)C(=O)N1Cc2nnn(C)c2C(COCC2CC2)C1` (configuration not stated), the cytotoxicity at 70.5 h was -6.79%.

As for `Cn1cc(CN2CC3(CCN(C(=O)c4cscn4)C3)C2)cn1`, the cytotoxicity at 70.5 h was -7.98%.

For the compound `CCNC(=O)c1ncn2c1CN(C)S(=O)(=O)c1ccccc1-2`, the cytotoxicity at 70.5 h was -8.36%.

In the case of `Cc1ccc2c(c1)C1(CC2)CCN(c2nncs2)CC1`, the cytotoxicity at 70.5 h was -4.57%.

With `Fc1cnc(N2CCC3(COCc4cnc(NCC5CC5)nc43)C2)nc1` (configuration not stated), the cytotoxicity at 70.5 h was -6.29%.

On to `Cn1cc(CN2CCC3(CCCN(Cc4ccccn4)C3)CC2)cn1`, for which the cytotoxicity at 70.5 h is -5.87%.

Regarding `Cc1ccc(CS(=O)(=O)N2CC[C@H]3[C@H]2CCN3C)cc1`, the cytotoxicity at 70.5 h is -5.67%.

`Cn1cc(C(=O)NC[C@@H]2OC[C@H]3CN(S(C)(=O)=O)CC[C@H]32)cn1`: the cytotoxicity at 70.5 h is -3.04%.

As for `c1nc2c(c(C3CC3)n1)CCN(Cc1ccoc1)CC2`, the cytotoxicity at 70.5 h came out at 18.1%.

`COCC1COCCC12CCN(C(=O)CCc1ccccc1)CC2` (configuration not stated): the cytotoxicity at 70.5 h stood at 5.59%.

Regarding `CCC(=O)N1CCC(c2nc3ccc(NC(C)C)cn3n2)CC1`, the cytotoxicity at 70.5 h came out at 4.46%.

On to `C[C@@H]1C[C@@H]2CCN(C(=O)c3cnccn3)C[C@H]2O1`, for which the cytotoxicity at 70.5 h was -0.399%.

For `CCn1nnc2c1C(COC)CN(C(=O)Cc1cccs1)C2` (configuration not stated), the cytotoxicity at 70.5 h was -7.34%.

In the case of `c1cnc(N2C[C@H]3CCN(c4cccnc4)C[C@H]3C2)nc1`, the cytotoxicity at 70.5 h is -6.6%.

Regarding `COCCO[C@@H]1CCN(C(=O)c2ccc(C)o2)[C@@H]1Cc1cnn(C)c1`, the cytotoxicity at 70.5 h is -2.12%.

As to `Cc1noc([C@H]2CC[C@@H]3[C@@H](CCN3S(C)(=O)=O)O2)n1`, the cytotoxicity at 70.5 h is 1.24%.

Turning to `Cc1cccc(CN2CC[C@@H]3[C@@H]2CCN3C(=O)c2cnoc2C)n1`, the cytotoxicity at 70.5 h turned out to be 0.0209%.

`CC(C)NC(=O)N1CCN(C(=O)N(C)C)CC2(CC(=O)N(C)C2)C1` (configuration not stated): the cytotoxicity at 70.5 h is -6.79%.

In the case of `CCC1=N[C@@]2(CC[C@@H]3CN(C(=O)NC(C)C)C[C@@H]32)C(=O)N1C`, the cytotoxicity at 70.5 h was -1.59%.

Regarding `CC1CCc2nn(CCNC(=O)C3CCCC3)c(=O)cc2C1` (configuration not stated), the cytotoxicity at 70.5 h was -3.14%.

Take `CS(=O)(=O)N1CC(c2nc(N)ncc2-c2ccc(F)cc2)C1`: the cytotoxicity at 70.5 h was -2.15%.

For `O=C(N1CCCC1)N1CCc2c(CNc3ncccn3)cncc2C1`, the cytotoxicity at 70.5 h was -1.33%.

As to `COCCC(=O)N1CCc2c(CNc3ncccn3)cncc2C1`, the cytotoxicity at 70.5 h was -1.53%.

Consider `CS(=O)(=O)N[C@@H]1CN(Cc2ccco2)C[C@@H]2CCCO[C@@H]21`, for which the cytotoxicity at 70.5 h is -6.79%.

With `COCC1CC2(CCN(S(=O)(=O)C3CC3)CC2)CN1c1ncccn1` (configuration not stated), the cytotoxicity at 70.5 h was found to be 14.2%.

`Cn1cc(CN2C[C@@H]3CCCO[C@@H]3[C@H](NC(=O)CC3CC3)C2)cn1`: the cytotoxicity at 70.5 h worked out at 11.8%.

For `CC(C)N1CCOCC2(CCCN(C(=O)c3cn(C)cn3)C2)C1` (configuration not stated), the cytotoxicity at 70.5 h was 0.0869%.

Take `O=C(NCc1ccco1)[C@@]12CCO[C@@H]1CCN(c1ncccn1)C2`: the cytotoxicity at 70.5 h was -2.22%.

For the compound `O=C(NCc1ccco1)[C@@]12CCO[C@@H]1CCN(CC1CCOCC1)C2`, the cytotoxicity at 70.5 h was -1.64%.

For `Cc1ccc(CNC(=O)c2nc3c(o2)CN(C(=O)c2cccnc2)C3)o1`, the cytotoxicity at 70.5 h is -1.67%.

As for `O=C(NC1CCC1)[C@@H]1CCO[C@@H]2CCN(C3CCCC3)C[C@H]21`, the cytotoxicity at 70.5 h is -3.8%.

Turning to `O=C(NCc1ccco1)[C@@]12CCO[C@@H]1CCN(C1CCC1)C2`, the cytotoxicity at 70.5 h stood at 2.1%.

As for `COc1ccc(CC(=O)N2CCN(C)c3ncccc3C2)cc1`, the cytotoxicity at 70.5 h is 11.6%.

Turning to `Fc1ccccc1CN1C[C@H](OCC2CCOCC2)[C@H]2OCCC[C@H]21`, the cytotoxicity at 70.5 h stood at 17.2%.

In the case of `O=C(COC[C@H]1CC[C@H]2[C@H](CCN2c2ncccn2)O1)N1CCCC1`, the cytotoxicity at 70.5 h was -3.63%.

For `CN(C)c1ncc2c(n1)C1(CCN(Cc3ccccc3)C1)COC2` (configuration not stated), the cytotoxicity at 70.5 h was -5.25%.

With `Cn1cc(N2CC3(CCN(Cc4cccs4)CC3)OCC2=O)cn1`, the cytotoxicity at 70.5 h was -4.87%.

As for `Cc1ccccc1CN1CCC2(COCc3cnc(N(C)C)nc32)C1` (configuration not stated), the cytotoxicity at 70.5 h worked out at 0.683%.

On to `O=C1NC2(CCN(C(=O)c3ccccc3)CC2)CC1c1cccnc1` (configuration not stated), for which the cytotoxicity at 70.5 h was determined as 2.71%.

As to `Cc1ccc(CN2Cc3c(C(=O)N(C)C)nn(C)c3C2)s1`, the cytotoxicity at 70.5 h was -3.13%.

Take `CCn1ncc2c1C(COCC1CC1)CN(S(=O)(=O)N(C)C)C2` (configuration not stated): the cytotoxicity at 70.5 h was -7.75%.

For `Cc1nc(CN2C(=O)COC3(CCN(Cc4nccs4)CC3)C2C)cs1` (configuration not stated), the cytotoxicity at 70.5 h is -6.92%.

Regarding `O=C(Cc1cccs1)N1C[C@@H]2OCCN(CC3CCCO3)[C@@H]2C1` (some centres not stated), the cytotoxicity at 70.5 h is -1.51%.

As to `Cc1cccc(CN2CCc3ncnc(N4CCOCC4)c3CC2)n1`, the cytotoxicity at 70.5 h was -1.5%.

Regarding `Cn1ccc(C(=O)NC2CCC23CCN(C(=O)c2ccncc2)CC3)c1` (configuration not stated), the cytotoxicity at 70.5 h was -6.03%.

As for `Cc1cccc(-c2ccc3nc(C4CCN(CC5CC5)CC4)nn3c2)c1`, the cytotoxicity at 70.5 h worked out at 0.0128%.

In the case of `Cc1nc(CN2C[C@@H]3CN(C(=O)c4cnccn4)C[C@@H]3C2)cs1`, the cytotoxicity at 70.5 h was -11.6%.

Consider `Cc1nc(CN2C(=O)C[C@H]3[C@H]2CCN3C2CCOCC2)cs1`, for which the cytotoxicity at 70.5 h was -2.79%.

As to `CN1Cc2c(C(=O)Nc3cccnc3)ncn2-c2ccccc2S1(=O)=O`, the cytotoxicity at 70.5 h was -8.44%.

In the case of `O=C(c1cnoc1)N1CCC[C@]2(C[C@H](Oc3ncccc3F)CO2)C1`, the cytotoxicity at 70.5 h was -3.55%.

Turning to `CCN1CCC2(COCc3cnc(NCC4CC4)nc32)C1` (configuration not stated), the cytotoxicity at 70.5 h is -4.64%.

For `O=C(c1cnoc1)N1CCC[C@]2(C[C@@H](OCc3ccccn3)CO2)C1`, the cytotoxicity at 70.5 h was -9.96%.

On to `COC[C@@]12CCO[C@@H]1CCN(Cc1ccccc1F)C2`, for which the cytotoxicity at 70.5 h was -9.38%.

As to `O=C(NCc1cn2c(n1)CN(CC1CCOCC1)CC2)C1CCC1`, the cytotoxicity at 70.5 h was -2.34%.

With `O=C(CO[C@@H]1CC[C@H]2[C@H]1OCCN2CC1CCOCC1)N1CCCC1`, the cytotoxicity at 70.5 h is -0.662%.

Consider `CCN1CC2(CC1=O)CN(Cc1cnn(C)c1)CCN(C(=O)C(C)C)C2` (configuration not stated), for which the cytotoxicity at 70.5 h is -4.6%.

Turning to `CCc1ccc(CN2CCC3(CC2)CNC(=O)CO3)o1`, the cytotoxicity at 70.5 h is -3.42%.

Take `Cc1cccc(CN2C(=O)CO[C@@H]3CN(Cc4nccn4C)C[C@H]32)c1`: the cytotoxicity at 70.5 h was -3.81%.

Regarding `Cc1cccc(CN2C(=O)CO[C@@H]3CN(CCO)C[C@H]32)c1`, the cytotoxicity at 70.5 h is -3.53%.

Consider `CC(C)Nc1ccc2nc(C3CCN(C(C)C)CC3)nn2c1`, for which the cytotoxicity at 70.5 h was -2.64%.

In the case of `O=C(Nc1cnccn1)[C@H]1COC[C@H]2CN(C3CCCC3)C[C@H]21`, the cytotoxicity at 70.5 h is -2.04%.

Turning to `CNC(=O)CC1CC2(CCN(Cc3nccs3)CC2)c2ccccc21` (configuration not stated), the cytotoxicity at 70.5 h is 0.687%.

For `CO[C@@H]1CC[C@H]2[C@H]1OCCN2CC1CCOCC1`, the cytotoxicity at 70.5 h was -2.79%.

For the compound `CC(C)Nc1ncnc2c1CCN(C(=O)Cc1ccccn1)CC2`, the cytotoxicity at 70.5 h amounted to 26.6%.

For `O=S(=O)(C1CC1)N1CCOCC2(CCN(c3ccccn3)C2)C1` (configuration not stated), the cytotoxicity at 70.5 h was 36.2%.

Take `CCN1CC2(CCNCC2)COc2ccccc2S1(=O)=O`: the cytotoxicity at 70.5 h is -15.6%.

As to `CC(=O)N1CC(=O)N(c2cccnc2)CC12CCN(Cc1nccs1)C2` (configuration not stated), the cytotoxicity at 70.5 h is -0.821%.

In the case of `Cn1ccnc1CN1CCN2C[C@H](Oc3cncnc3)C[C@H]2C1`, the cytotoxicity at 70.5 h stood at 0.558%.

In the case of `O=C(NCc1ccco1)[C@@]12CCO[C@@H]1CCN(Cc1ccccn1)C2`, the cytotoxicity at 70.5 h is -3.48%.

With `O=C(NCCN1CCCC1)c1nc2c(o1)CN(C(=O)c1cccnc1)C2`, the cytotoxicity at 70.5 h was -1.83%.

As for `CN1CCCN(C(=O)c2nc3c(o2)CN(C(=O)c2cccnc2)C3)CC1`, the cytotoxicity at 70.5 h was -1.59%.

As to `Cc1cc(C(=O)N2CCCC3(COCCN(CCN(C)C)C3)C2)no1` (configuration not stated), the cytotoxicity at 70.5 h was found to be 1.65%.

For `COc1ccc(CN2CCC3(CC2)CN(c2ccccn2)CCO3)cc1`, the cytotoxicity at 70.5 h came to 2.33%.

For `O=C1[C@H]2CN(Cc3ccncc3)C[C@H]2CN1c1cncnc1`, the cytotoxicity at 70.5 h was -0.121%.

In the case of `CN1CC(=O)N(c2cnn(C)c2)CC12CCN(Cc1nccn1C)C2` (configuration not stated), the cytotoxicity at 70.5 h was -4.58%.

Turning to `O=c1ccc2c(n1CCN1CCCC1)CCN(Cc1ccoc1)CC2`, the cytotoxicity at 70.5 h was -5.75%.

Turning to `CCOCC1CN(C)Cc2cnn(CC3CCCC3)c21` (configuration not stated), the cytotoxicity at 70.5 h is -5.11%.

Take `c1cnc(NCc2ncn3c2CN(Cc2cccnc2)CCC3)nc1`: the cytotoxicity at 70.5 h is -2.74%.

As to `Cn1cc(C(=O)NCc2cn3c(n2)CN(Cc2ccccn2)CC3)cn1`, the cytotoxicity at 70.5 h is -1.02%.

Take `Cc1cccc(CN2CC[C@@H]3[C@@H]2CCN3C(=O)c2ccno2)n1`: the cytotoxicity at 70.5 h was -4.67%.

As to `CN(C)C(=O)COC[C@H]1CC[C@@H]2[C@@H](CCN2Cc2ccccn2)O1`, the cytotoxicity at 70.5 h was -7.44%.

For `c1cc(CN2C[C@@H]3COC[C@]3(COCC3CC3)C2)ccn1`, the cytotoxicity at 70.5 h was found to be 11.6%.

With `COCC1CC2(CCN(Cc3ccccn3)CC2)CN1c1ncccn1` (configuration not stated), the cytotoxicity at 70.5 h was determined as 0.787%.
